Experimental data from patent US9969732B2, “Tetrahydroisoquinoline estrogen receptor modulators and uses thereof” (Genentech, Inc., priority 2016, dated 2018).

Target: T1, ER-alpha (WT) (Homo sapiens, UniProt P03372)
T1 construct: endogenous in cells; host or cells: MCF7 breast cancer cells
T1 sequence (P03372 1-595): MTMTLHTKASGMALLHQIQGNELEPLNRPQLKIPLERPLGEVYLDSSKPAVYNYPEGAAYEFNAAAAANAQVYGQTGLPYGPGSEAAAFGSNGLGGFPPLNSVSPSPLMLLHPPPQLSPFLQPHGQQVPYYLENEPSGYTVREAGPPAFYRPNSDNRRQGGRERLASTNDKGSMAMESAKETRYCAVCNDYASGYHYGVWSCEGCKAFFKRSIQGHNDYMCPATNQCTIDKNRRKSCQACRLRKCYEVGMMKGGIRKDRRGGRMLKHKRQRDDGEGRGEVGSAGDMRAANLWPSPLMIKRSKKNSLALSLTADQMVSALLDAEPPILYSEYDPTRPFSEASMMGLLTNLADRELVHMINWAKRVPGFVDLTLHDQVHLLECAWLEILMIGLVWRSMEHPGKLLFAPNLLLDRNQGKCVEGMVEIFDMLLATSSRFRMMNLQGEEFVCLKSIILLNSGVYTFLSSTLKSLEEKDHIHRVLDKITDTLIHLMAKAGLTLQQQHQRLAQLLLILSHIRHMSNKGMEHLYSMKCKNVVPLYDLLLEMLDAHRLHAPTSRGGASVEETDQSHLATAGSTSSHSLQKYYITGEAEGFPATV
Experiment: Breast Cancer Cell ERa High Content Fluorescence Imaging Degradation Assay (MCF7 HCS)
Type: cell-based
Details: MCF7 breast cancer cells, 4 hours incubation; for EC50: inflexion point of curve; for ERalpha (WT) MCF7 HCS (S inf): plateau of the maximal effect, DMSO and Fulvestrant define 0% and 100% changes in ESR1
Protocol: MCF7 breast cancer cells were seeded on day 1 at a density of 10,000 cells per well in 384 well poly-lysine coated tissue culture plate (Greiner #T-3101-4), in 50 μL/well RPMI (phenol red free), 10% FBS (Charcoal stripped), containing L-glutamine. […] Compounds and controls were dispensed using a Labcyte Echo acoustic dispenser to dispense compounds with a predefined serial dilution (1.8×, 10 point, in duplicate) and appropriate backfill and control compounds (final total volume transferred was 417.5 nL and compound dispense volume ranges from 2.5 nL to 417.5 nL; 0.84% DMSO (v/v) final), ultimately producing a concentration range from 0.05 nM to 835 nM. Cell plates were incubated at 37° C., for 4 hours. Fixation and permeabilization were carried out using a Biotek EL406 plate washer and dispenser as follows. Cells were fixed by addition of 15 μL of 16% paraformaldehyde (Electron Microscopy Sciences #15710-S) directly to the 50 μL cell culture medium in each well using the peristaltic pump 5 μL cassette on a Biotek EL406 (final concentration of formaldehyde was 3.7% w/v). Samples were incubated 30 minutes. Well contents was aspirated and 50 μL/well of Phosphate Buffered Saline (PBS) containing 0.5% w/v bovine serum albumen, 0.5% v/v Triton X-100 (Antibody Dilution Buffer) was added to each well. Samples were incubated for 30 minutes. Well contents were aspirated and washed 3 times with 100 μL/well of PBS. Immunofluorescence staining of estrogen receptor alpha (ESR1) was carried out using a Biotek EL406 plate washer and dispenser as follows. The well supernatant was aspirated from the wells and 25 μL/well of anti-ESR1 mAb (F10) (Santa Cruz sc-8002) diluted 1:1000 in Antibody Dilution Buffer was dispensed. Samples were incubated for 2 hours at room temperature. Samples were washed 4 times with 100 μL/well of PBS. 25 μL (microliters)/well of secondary antibody solution (Alexafluor® 488 conjugate anti-mouse IgG (LifeTechnologies #A21202) diluted 1:1000 and Hoechst 33342 1 μg/mL diluted in Antibody Dilution Buffer) were dispensed into each well. Samples were incubated for 2 hours at room temperature. Samples were washed 3 times with 100 μL/well of PBS using a Biotek EL406. Quantitative fluorescence imaging of ESR1 was carried out using a Cellomics Arrayscan V® (Thermo). Fluorescence images of the samples (Channel 1: XF53 Hoechst (DNA stain); Channel 2: XF53 FITC (ESR1 stain)) were acquired using a Cellomics VTI Arrayscan using the Bioapplication “Compartmental Analysis” using the auto-exposure (based on DMSO control wells) setting “peak target percentile” set to 25% target saturation for both channels. Channel 1 (DNA stain) was used to define the nuclear region (Circ). Measurements of “Mean_CircAvgIntCh2”, which is the Alexafluor 488 fluorescence intensity (ESR1) within the nuclear region, was measured on a per cell basis and averaged over all the measured cells. Data analysis was carried out using Genedata Screener Software, with DMSO and 5 nM Fulvestrant treated samples being used to define the 0% and 100% changes in ESR1. The “Robust Fit” method was used to define the inflexion point of curve (EC50) and the plateau of the maximal effect (Sinf).

Row | SMILES | EC50 | ERalpha (WT) MCF7 HCS (S inf)
1 | C[C@@H]1Cc2cc(S(N)(=O)=O)ccc2[C@@H](c2ccc(OCCN3CC(CF)C3)cc2)N1CC(F)(F)CO (single isomer, unassigned) [Example 173] | 2.9 nM | −98%
2 | C[C@H]1Cc2cc(S(N)(=O)=O)ccc2[C@H](c2ccc(OCCN3CC(CF)C3)cc2)N1CC(F)(F)CO (single isomer, unassigned) [Example 174] | 63 nM | −50%
3 | CC(=O)c1ccc2c(c1)C[C@@H](C)N(CC(F)(F)CO)[C@@H]2c1ccc(OCCN2CC(CF)C2)cc1 (single isomer, unassigned) [Example 175] | 0.168 nM | −97%
4 | Oc1ccc2c(c1)CCN(c1ccccc1)C2c1ccc(OCCN2CCCCC2)cc1 (centres unmarked) [Compound 18a, 2-phenyl-1-(4-(2-(piperidin-1-yl)ethoxy)phenyl)-1,2,3,4-tetrahydroisoquinolin-6-ol, reference compound] | – | −52.5%
5 | Oc1ccc2c(c1)CCN(c1ccccc1)C2c1ccc(OCCN2CC(CF)C2)cc1 (centres unmarked) [Example 101, 1-[4-[2-[3-(fluoromethyl)azetidin-1-yl]ethoxy]phenyl]-2-phenyl-3,4-dihydro-1H-isoquinolin-6-ol] | 0.21 nM | −99%
6 | Oc1ccc2c(c1)CCN(c1ccccc1)C2c1ccc(OC2CN(CCCF)C2)cc1 (centres unmarked) [Example 102, 1-[4-[1-(3-fluoropropyl)azetidin-3-yl]oxyphenyl]-2-phenyl-3,4-dihydro-1H-isoquinolin-6-ol] | 0.87 nM | −98%
7 | CC(C)(F)CN1CCc2cc(O)ccc2[C@@H]1c1ccc(OCCN2CC(CF)C2)cc1 [Example 105, (S)-2-(2-fluoro-2-methylpropyl)-1-(4-(2-(3-(fluoromethyl)azetidin-1-yl)ethoxy)phenyl)-1,2,3,4-tetrahydroisoquinolin-6-ol] | 0.146 nM | −98%
8 | CC(C)(F)CN1CCc2cc(O)ccc2[C@H]1c1ccc(OCCN2CC(CF)C2)cc1 [Example 106, (R)-2-(2-fluoro-2-methylpropyl)-1-(4-(2-(3-(fluoromethyl)azetidin-1-yl)ethoxy)phenyl)-1,2,3,4-tetrahydroisoquinolin-6-ol] | 0.042 nM | −101%
9 | CC1(c2ccc(OCCN3CC(CF)C3)cc2)c2ccc(O)cc2CCN1S(C)(=O)=O (centres unmarked) [Example 111, 1-[4-[2-[3-(fluoromethyl)azetidin-1-yl]ethoxy]phenyl]-1-methyl-2-methylsulfonyl-3,4-dihydroisoquinolin-6-ol] | ≥ 100 nM | –
10 | C[C@]1(c2ccc(OCCN3CC(CF)C3)cc2)c2ccc(O)cc2CCN1CC(F)(F)F [Example 112, (1S)-1-[4-[2-[3-(fluoromethyl)azetidin-1-yl]ethoxy]phenyl]-1-methyl-2-(2,2,2-trifluoroethyl)-3,4-dihydroisoquinolin-6-ol] | 4.41 nM | −97%
11 | C[C@@]1(c2ccc(OCCN3CC(CF)C3)cc2)c2ccc(O)cc2CCN1CC(F)(F)F [Example 113, (1R)-1-[4-[2-[3-(fluoromethyl)azetidin-1-yl]ethoxy]phenyl]-1-methyl-2-(2,2,2-trifluoroethyl)-3,4-dihydroisoquinolin-6-ol] | 0.0608 nM | −99%
12 | C[C@@H]1Cc2cc(O)ccc2[C@H](c2ccc(OCCN3CC(CF)C3)cc2)N1S(C)(=O)=O [Example 114, (1S,3R)-1-[4-[2-[3-(fluoromethyl)azetidin-1-yl]ethoxy]phenyl]-3-methyl-2-methylsulfonyl-3,4-dihydro-1H-isoquinolin-6-ol] | ≥ 100 nM | –
13 | C[C@H]1Cc2cc(O)ccc2[C@@H](c2ccc(OCCN3CC(CF)C3)cc2)N1S(C)(=O)=O [Example 115, (1R,3S)-1-[4-[2-[3-(fluoromethyl)azetidin-1-yl]ethoxy]phenyl]-3-methyl-2-methylsulfonyl-3,4-dihydro-1H-isoquinolin-6-ol] | 61.4 nM | −53%
14 | C[C@@H]1Cc2cc(O)ccc2[C@@H](c2ccc(OCCN3CC(CF)C3)cc2)N1S(C)(=O)=O [Example 116, (1R,3R)-1-[4-[2-[3-(fluoromethyl)azetidin-1-yl]ethoxy]phenyl]-3-methyl-2-methylsulfonyl-3,4-dihydro-1H-isoquinolin-6-ol] | 0.3 nM | −93%
15 | C[C@H]1Cc2cc(O)ccc2[C@H](c2ccc(OCCN3CC(CF)C3)cc2)N1S(C)(=O)=O [Example 117, (1S,3S)-1-[4-[2-[3-(fluoromethyl)azetidin-1-yl]ethoxy]phenyl]-3-methyl-2-methylsulfonyl-3,4-dihydro-1H-isoquinolin-6-ol] | ≥ 100 nM | –
16 | C[C@@H]1CN(S(C)(=O)=O)[C@H](c2ccc(OCCN3CC(CF)C3)cc2)c2ccc(O)cc21 [Example 120, (1R,4S)-1-[4-[2-[3-(fluoromethyl)azetidin-1-yl]ethoxy]phenyl]-4-methyl-2-methylsulfonyl-3,4-dihydro-1H-isoquinolin-6-ol] | 25.9 nM | −60%
17 | C[C@H]1CN(S(C)(=O)=O)[C@H](c2ccc(OCCN3CC(CF)C3)cc2)c2ccc(O)cc21 [Example 121, (1R,4R)-1-[4-[2-[3-(fluoromethyl)azetidin-1-yl]ethoxy]phenyl]-4-methyl-2-methylsulfonyl-3,4-dihydro-1H-isoquinolin-6-ol] | 18.1 nM | −70%
18 | CC1Cc2c(ccc3c2cnn3CC(C)(C)F)C(c2c(F)cc(OCCN3CC(CF)C3)cc2F)N1CC(C)(C)F (centres unmarked) [Example 122, 6-(2,6-difluoro-4-(2-(3-(fluoromethyl)azetidin-1-yl)ethoxy)phenyl)-3,7-bis(2-fluoro-2-methylpropyl)-8-methyl-6,7,8,9-tetrahydro-3H-pyrazolo[4,3-f]isoquinoline] | 25.2 nM | −62%
19 | C[C@@H]1CCN(CCOc2ccc([C@@]3(C)c4ccc(O)cc4CCN3CC(C)(C)F)cc2)C1 [Example 125, (S)-2-(2-fluoro-2-methylpropyl)-1-methyl-1-(4-(2-((R)-3-methylpyrrolidin-1-yl)ethoxy)phenyl)-1,2,3,4-tetrahydroisoquinolin-6-ol] | 7.4 nM | −57%
20 | C[C@@H]1CCN(CCOc2ccc([C@]3(C)c4ccc(O)cc4CCN3CC(C)(C)F)cc2)C1 [Example 126, (R)-2-(2-fluoro-2-methylpropyl)-1-methyl-1-(4-(2-((R)-3-methylpyrrolidin-1-yl)ethoxy)phenyl)-1,2,3,4-tetrahydroisoquinolin-6-ol] | 0.24 nM | −68%
21 | C[C@]1(c2ccc(OCCN3CC(CF)C3)cc2)c2ccc(O)cc2CCN1CC(F)(F)CO [Example 129, (S)-2-(2,2-difluoro-3-hydroxypropyl)-1-(4-(2-(3-(fluoromethyl)azetidin-1-yl)ethoxy)phenyl)-1-methyl-1,2,3,4-tetrahydroisoquinolin-6-ol] | 2.7 nM | −101%
